The values below come from patent US10696692B2, “Amido-benzyl sulfone and sulfoxide derivates” (Forma TM, LLC, priority 2012, dated 2020).

Molecules are shown by their SMILES. Read-outs that look alike come from different tables or passages of the source.

The subject of assay [1] is A2780 cells. Kind of assay: Assay 2: In-Vitro Cell Proliferation Assay (A2780 cells, SRB readout, 72 hours).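 Also: viable cells counted via sulforhodamine B staining, absorbance at 570 nm, after 72 h exposure at 37 °C, DMSO 0.1% as control, media-only background subtracted.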 Type of assay: cell-based. The following applies: A2780 cells, 72 hours, SRB, read-out: Cell Proliferation (IC50).
The target in assay [2] is NAMPT (Homo sapiens (Human), UniProt P43490). The assay can be described thus: Assay 1: Biochemical Inhibition Assay (NAMPT enzymatic reaction, NMN quantified by mass spectrometry).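 Also: recombinant His-tagged human NAMPT preincubated with compound 15 min, then reacted 30 min at rt with 1 µM NAM, 100 µM PRPP, 2.5 mM ATP, NMN product read by RapidFire MS, normalized to L-Cystathionine internal standard.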 The following applies: read-out: Biochemical (IC50).
Chain of NAMPT (P43490 whole entry): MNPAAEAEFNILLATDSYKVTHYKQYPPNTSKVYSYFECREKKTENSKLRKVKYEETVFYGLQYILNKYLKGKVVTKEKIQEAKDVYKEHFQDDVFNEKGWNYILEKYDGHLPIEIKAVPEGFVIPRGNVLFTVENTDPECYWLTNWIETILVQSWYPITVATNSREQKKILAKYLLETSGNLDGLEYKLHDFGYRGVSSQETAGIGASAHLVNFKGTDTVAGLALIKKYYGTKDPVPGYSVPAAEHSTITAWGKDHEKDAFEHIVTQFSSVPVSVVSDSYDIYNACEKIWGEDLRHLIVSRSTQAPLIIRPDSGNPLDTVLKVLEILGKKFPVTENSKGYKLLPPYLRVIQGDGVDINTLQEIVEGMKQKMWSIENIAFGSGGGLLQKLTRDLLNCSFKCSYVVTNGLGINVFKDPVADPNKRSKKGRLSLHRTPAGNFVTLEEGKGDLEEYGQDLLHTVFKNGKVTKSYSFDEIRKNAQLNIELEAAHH

On to `CC(=O)N1CCCC(S(=O)(=O)c2ccc(CNC(=O)c3cnc4[nH]ncc4c3)cc2)C1` (stereo not drawn) [Example 347, N-[[4-[(1-acetyl-3-piperidyl)sulfonyl]phenyl]methyl]-1H-pyrazolo[3,4-b]pyridine-5-carboxamide], for which the IC50 was 640 nM in assay [1] (Homo sapiens, A2780, 72 h) and 381 nM in assay [2].

Consider `CC(=O)N1CCC(S(=O)(=O)c2ccc(CNC(=O)c3cnc4[nH]ncc4c3)cc2)C1` (stereo not drawn) [Example 348, N-[[4-(1-acetylpyrrolidin-3-yl)sulfonylphenyl]methyl]-1H-pyrazolo[3,4-b]pyridine-5-carboxamide], for which the IC50 in assay [1] (Homo sapiens, A2780, 72 h) stood at 2000 nM; in assay [2], 2000 nM.

As for `CS(=O)(=O)N1CCC(S(=O)(=O)c2ccc(CNC(=O)c3cnc4[nH]ncc4c3)cc2)CC1` [Example 349, N-[[4-[(1-methylsulfonyl-4-piperidyl)sulfonyl]phenyl]methyl]-1H-pyrazolo[3,4-b]pyridine-5-carboxamide], the IC50 came to 52.2 nM in assay [1] (Homo sapiens, A2780, 72 h) and 73.5 nM in assay [2].

For `O=C(NCc1ccc(S(=O)(=O)C2CCCN(C(=O)c3ccccc3)C2)cc1)c1cnc2[nH]ncc2c1` (stereo not drawn) [Example 350, N-[[4-[(1-benzoyl-3-piperidyl)sulfonyl]phenyl]methyl]-1H-pyrazolo[3,4-b]pyridine-5-carboxamide], the IC50 in assay [1] (Homo sapiens, A2780, 72 h) is 258 nM; in assay [2], 300 nM.

As to `O=C(NCc1ccc(S(=O)(=O)C2CCN(C(=O)c3ccccc3)C2)cc1)c1cnc2[nH]ncc2c1` (stereo not drawn) [Example 351, N-[[4-(1-benzoylpyrrolidin-3-yl)sulfonylphenyl]methyl]-1H-pyrazolo[3,4-b]pyridine-5-carboxamide], the IC50 in assay [1] (Homo sapiens, A2780, 72 h) turned out to be 107 nM; in assay [2], 71.1 nM.

As for `O=C(NCc1ccc(S(=O)(=O)C2CCN(S(=O)(=O)c3ccccc3)CC2)cc1)c1cnc2[nH]ncc2c1` [Example 352, N-[[4-[[1-(benzenesulfonyl)-4-piperidyl]sulfonyl]phenyl]methyl]-1H-pyrazolo[3,4-b]pyridine-5-carboxamide], the IC50 in assay [1] (Homo sapiens, A2780, 72 h) was 20.3 nM; in assay [2], 18 nM.

Take `CS(=O)(=O)N1CCCC(S(=O)(=O)c2ccc(CNC(=O)c3cnc4[nH]ncc4c3)cc2)C1` (stereo not drawn) [Example 353, N-[[4-[(1-methylsulfonyl-3-piperidyl)sulfonyl)phenyl]methyl]-1H-pyrazolo[3,4-b]pyridine-5-carboxamide]: the IC50 in assay [1] (Homo sapiens, A2780, 72 h) was determined as 2000 nM; in assay [2], 3970 nM.

Consider `CS(=O)(=O)N1CCC(S(=O)(=O)c2ccc(CNC(=O)c3cnc4[nH]ncc4c3)cc2)C1` (stereo not drawn) [Example 354, N-[[4-(1-methylsulfonylpyrrolidin-3-yl)sulfonylphenyl]methyl]-1H-pyrazolo[3,4-b]pyridine-5-carboxamide], for which the IC50 is 726 nM in assay [1] (Homo sapiens, A2780, 72 h) and 413 nM in assay [2].

In the case of `O=C(NCc1ccc([S+]([O-])C2CCN(CC(F)(F)F)CC2)cc1)c1cc2ccncc2o1` (stereo not drawn) [Example 356, N-[[4-[[1-(2,2,2-trifluoroethyl)-4-piperidyl]sulfinyl]phenyl]methyl]furo[2,3-c]pyridine-2-carboxamide], the IC50 in assay [1] (Homo sapiens, A2780, 72 h) came out at 3.25 nM; in assay [2] it was 13.5 nM.

Take `CCCN1CCC([S+]([O-])c2ccc(CNC(=O)c3cc4ccncc4o3)cc2)CC1` (stereo not drawn) [Example 358, N-[[4-[(1-propyl-4-piperidyl)sulfinyl]phenyl]methyl]furo[2,3-c]pyridine-2-carboxamide]: the IC50 in assay [1] was found to be 4.58 nM; in assay [2], 19.3 nM.

Regarding `CC(C)N1CCC([S+]([O-])c2ccc(CNC(=O)c3ccc4nccn4c3)cc2)CC1` (stereo not drawn) [Example 362, N-[[4-[(1-isopropyl-4-piperidyl)sulfinyl]phenyl]methyl]imidazo[1,2-a]pyridine-6-carboxamide], the IC50 in assay [1] (Homo sapiens, A2780, 72 h) was found to be 22.1 nM; in assay [2], 35 nM.

Turning to `CC(C)N1CCC([S+]([O-])c2ccc(CNC(=O)N3Cc4ccncc4C3)cc2)CC1` (stereo not drawn) [Example 363, N-[[4-[(1-isopropyl-4-piperidyl)sulfinyl]phenyl]methyl]-1,3-dihydropyrrolo[3,4-c]pyridine-2-carboxamide], the IC50 in assay [1] (Homo sapiens, A2780, 72 h) amounted to 45.6 nM; in assay [2], 53.7 nM.
